Source: ChEMBL document CHEMBL1150640, “Tasiamide, a cytotoxic peptide from the marine cyanobacterium Symploca sp” (J Nat Prod, 2002)
≈ marks a conversion by molar mass, not a printed value.

Columns and labels:
LoVo = assay: Cytotoxicity against human LoVo cells; format: functional, cell-based
KB = assay: Cytotoxicity against human KB cells; format: functional, cell-based

## CC[C@H](C)[C@H](O)C(=O)N[C@@H](CC(C)C)C(=O)N(C)[C@@H](CCC(N)=O)C(=O)N[C@H](C(=O)NCC(=O)N(C)[C@H](Cc1ccccc1)C(=O)N1CCC[C@H]1C(=O)OC)[C@@H](C)CC [TASIAMIDE]
LoVo
  IC50: 3.47 µg/mL (≈ 4.18 µM)
KB
  IC50: 0.48 µg/mL (≈ 0.578 µM)
